Results published in patent publication US20250099420A1, “SMALL MOLECULE MODULATORS OF GPR139 COMPLEX” (University of Florida Research Foundation, Incorporated, priority 2022, published 2025).
Like-named read-outs stand apart in the source and are kept apart here.

Legend:
parental HEK cells = assay: HEK parental Agonist Counterscreen Assay (non-transfected cells); type: cell-based; settings: for Averaged Max % Response (±St. Dev.): activity relative to known control
Text: The high control for the agonist counterscreen was Forskolin not acetylcholine.

GPR139 = molecular target: T1, GPR139 (Homo sapiens, UniProt Q6DWJ6); assay: GPR139 Agonist titration / agonist counterscreen assay (calcium detection, HEK-GPR139 cells); type: cell-based; parameters: expressed in transfected cells; host or cells: HEK Aequorin cells, Maxcyte transient transfection; settings: GPR139 Agonist Activity; for Averaged Max % Response (±St. Dev.): activity relative to known control; for EC50: read-out: EC50
T1 sequence (Q6DWJ6 1-353): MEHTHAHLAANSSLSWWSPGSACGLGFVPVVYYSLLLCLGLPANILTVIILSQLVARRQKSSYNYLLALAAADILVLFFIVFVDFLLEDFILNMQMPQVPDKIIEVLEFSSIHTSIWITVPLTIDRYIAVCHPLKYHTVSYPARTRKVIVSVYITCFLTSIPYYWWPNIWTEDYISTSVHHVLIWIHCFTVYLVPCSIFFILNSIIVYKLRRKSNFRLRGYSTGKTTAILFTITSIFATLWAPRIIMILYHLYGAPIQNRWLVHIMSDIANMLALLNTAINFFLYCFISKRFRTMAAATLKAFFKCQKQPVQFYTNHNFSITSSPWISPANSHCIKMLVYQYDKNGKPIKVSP
Method: GPR activity was assessed using a calcium detection assay. […] Negative control samples were treated with DMSO. […] Intracellular calcium was measured using Calcium 5.

[1] = HEK Agonist Activity section of Table 4 (parental HEK counterscreen)
[2] = values printed in E-notation without unit
[3] = Homo sapiens, HEK293, HEK Agonist Activity section of Table 4 (parental HEK counterscreen)
[4] = Homo sapiens, HEK293, HEK Agonist Activity, parental non-transfected HEK cells

| Lipophilic Efficiency (logD) (parental HEK cells; HEK Agonist Activity section) | Lipophilic Efficiency (logP) (parental HEK cells; HEK Agonist Activity section) | Averaged Max % Response (±St. Dev.) (GPR139) | Lipophilic Efficiency (logD) (GPR139; based on logD) | Lipophilic Efficiency (logP) (GPR139; based on logP) | Hill Slope (GPR139; fitted dose-response curve) | Efficiency Ligand (GPR139; ligand efficiency) | EC50 (GPR139; [2]) | Efficiency Ligand (GPR139) | Hill Slope (GPR139) | Lipophilic Efficiency (logD) (GPR139) | Lipophilic Efficiency (logP) (GPR139) | Lipophilic Efficiency (logD) (parental HEK cells; HEK Agonist Activity) | Lipophilic Efficiency (logP) (parental HEK cells; HEK Agonist Activity) | EC50 (GPR139; HEK-GPR139 cells) | Compound | Averaged Max % Response (±St. Dev.) (parental HEK cells; HEK Agonist Activity section) | EC50 (parental HEK cells; [3]) | Averaged Max % Response (±St. Dev.) (parental HEK cells; HEK Agonist Activity) | EC50 (parental HEK cells; [4]) | other results |
| --- | --- | --- | --- | --- | --- | --- | --- | --- | --- | --- | --- | --- | --- | --- | --- | --- | --- | --- | --- | --- |
| 1.42 | 1.29 | 115.41 ± 10.16% | 3.51 | 3.38 | 0.89 | 0.28 | 110 nM |  |  |  |  |  |  |  | COc1ccc(CCNC(=O)c2ccnc(N3CCN(Cc4ccc5c(c4)OCO5)CC3)c2)cc1 [SR-01000654192] | 14.64 ± 17.11% |  |  |  | EC50 (parental HEK cells; [1]): > 13300 nM |
| 1.29 | 1.08 | 94.68 ± 16.83% |  |  |  |  |  | 0.33 | 1.55 | 2.50 | 2.29 |  |  |  | Cc1ccc(CNc2nc3ccccc3n2CCN2CCOCC2)cc1 [SR-01000364205] | −1.19 ± 1.27% | > 14100 nM |  |  |  |
|  |  | 108.00 ± 3.42% | 6.43 | 6.38 | 4.63 | 0.35 | 10.3 nM |  |  |  |  | 3.29 | 3.24 |  | O=C(CC(C(=O)N1CCc2ccccc21)n1ccnc1)NCC1COc2ccccc2O1 (stereo not shown) [SR-01000144615] |  |  | −9.40 ± 4.48% | > 14100 nM |  |
| 4.35 | 1.80 | 65.23 ± 8.63% |  |  |  |  |  | 0.56 | 0.93 | 5.53 | 2.98 |  |  | 930 nM | O=C(O)CC1CCCC1c1ccccc1 (stereo not shown) [SR-01000320687] | 17.26 ± 6.30% | > 14100 nM |  |  |  |
|  |  | 79.48 ± 15.63% | 4.84 | 4.84 | 1.63 | 0.48 | 11.6 nM |  |  |  |  | 1.76 | 1.76 |  | O=C(NNC(=O)C1CC1c1ccccc1)Nc1cccc(Cl)c1 (stereo not shown) [SR-01000202338] |  |  | 4.74 ± 3.91% | > 14100 nM |  |
| 1.61 | 1.61 | 74.00 ± 9.00% |  |  |  |  |  | 0.31 | 1.67 | 2.98 | 2.98 |  |  | 604 nM | CCCN1C(=O)CCc2cc(NC(=O)NCCc3ccc(OC)cc3)ccc21 [SR-01000923206] | −32.47 ± 4.02% |  |  |  | EC50 (parental HEK cells; [1]): > 14100 nM |
| 0.80 | 0.80 | 116.90 ± 31.97% |  |  |  |  |  | 0.29 | 1.12 | 2.20 | 2.20 |  |  | 556 nM | COc1cc(-c2noc(CCC(=O)Nc3cccc(C)c3C)n2)cc(OC)c1OC [SR-01000139458] | 16.10 ± 9.95% |  |  |  | EC50 (parental HEK cells; [1]): > 14100 nM |
|  |  | 110.51 ± 12.41% | 5.58 | 5.58 |  | 0.49 |  |  |  |  |  | 1.28 | 1.28 |  | CCOc1ccc(C(=O)NCCn2ccc3ccccc32)cc1OCC [SR-01000907288] |  |  | 14.88 ± 7.51% | > 14100 nM |  |
|  |  | 119.00 ± 0.36% | 6.50 | 6.50 | 0.58 | 0.40 | 10.1 nM |  |  |  |  | 3.34 | 3.34 |  | Cc1cc(C(=O)NNC(=O)CNC(=O)Cc2cccc3ccccc23)c(C)o1 [SR-01000068718] |  |  | 20.24 ± 11.96% | > 14900 nM |  |
| 1.89 | 1.89 | 98.34 ± 1.36% |  |  |  |  |  | 0.34 | 0.96 | 3.40 | 3.40 |  |  | 462 nM | COc1cc(C(=O)NNC(=O)CSc2ccc(C)cc2)cc(OC)c1C [SR-01000070170] | 6.82 ± 9.60% | > 15000 nM |  |  |  |
| 2.44 | 2.40 | 78.41 ± 20.14% |  |  |  |  |  | 0.29 | 1.22 | 3.95 | 3.92 |  |  | 430 nM | CC(C)Cn1c2c(c(=O)[nH]c1=O)C(NC(=O)CCC1CCCCC1)(C(F)(F)F)C(=O)N2 (stereo not shown) [SR-01000086488] | 1.08 ± 3.12% | > 14100 nM |  |  |  |
| 1.47 | 1.47 | 101.74 ± 19.26% |  |  |  |  |  | 0.29 | 1.51 | 3.10 | 3.10 |  |  | 328 nM | O=C(CC1CCN(Cc2ccccc2O)C1=O)C1CCC(c2cccc(O)c2)C(O)C1 (stereo not shown) [SR-01000151350] | 12.46 ± 7.98% | > 14100 nM |  |  |  |
|  |  | 123.74 ± 9.56% | 5.31 | 5.26 | 0.81 | 0.50 | 16.2 nM |  |  |  |  | 2.34 | 2.30 |  | O=C(CSc1ccc(Cl)cc1)NNC(=O)c1ccc(O)cc1 [SR-01000060349] |  |  | 36.27 ± 9.28% | > 15100 nM |  |
| 1.65 | 1.64 | 89.55 ± 3.66% |  |  |  |  |  | 0.35 | 0.90 | 3.12 | 3.11 |  |  | 477 nM | O=C(Nc1ccc(-c2c[nH]cn2)cc1)C1COc2ccc(F)cc2C1 (stereo not shown) [SR-00000004710] | −8.04 ± 14.30% | > 14100 nM |  |  |  |
| 1.99 | 1.99 | 86.57 ± 2.15% |  |  |  |  |  | 0.27 | 0.73 | 2.87 | 2.87 |  |  | 1800 nM | Cc1ccc(CN2CC34C=CC(O3)C(C(=O)NCCC3=CCCCC3)C4C2=O)cc1 (stereo not shown) [SR-01000550322] | −6.25 ± 1.61% |  |  |  | EC50 (parental HEK cells; [1]): > 13400 nM |
| 1.25 | 1.25 | 105.74 ± 4.40% | 3.09 | 3.09 | 1.05 | 0.39 | 205 nM |  |  |  |  |  |  |  | CCOc1ccc(C(=O)NCCc2ccc(F)cc2)cc1OCC [SR-01000243797] | 10.10 ± 12.81% | > 14100 nM |  |  |  |
| 2.32 | 2.31 | 96.94 ± 14.18% | 4.29 | 4.29 | 0.89 | 0.30 | 153 nM |  |  |  |  |  |  |  | Cc1ccc2c(c1)CCCN2CC(=O)N(C)c1c(N)n(Cc2ccccc2)c(=O)[nH]c1=O [SR-01000070509] | 15.75 ± 7.96% |  |  |  | EC50 (parental HEK cells; [1]): > 14300 nM |
|  |  | 98.34 ± 6.18% | 4.61 | 4.61 | 0.92 | 0.57 | 16.2 nM |  |  |  |  | 1.61 | 1.61 |  | Cn1cnnc1SCc1ccc(F)c2ccccc12 [SR-01000524029] |  |  | 9.45 ± 2.06% |  | EC50 (parental HEK cells; HEK Agonist Activity, parental non-transfected HEK cells): > 16000 nM |
|  |  | 94.48 ± 15.59% | 4.29 | 4.29 | 0.61 | 0.35 | 46.1 nM |  |  |  |  | 1.79 | 1.79 |  | CCn1c(C)nc2cc(C(=O)NNC(=O)Cc3cccc4ccccc34)ccc21 [SR-01000041378] |  |  | −2.48 ± 2.57% | > 14600 nM |  |
